According to patent US8912207B2, “2-aldoximino-5-fluoropyrimidine derivatives” (Dow AgroSciences, LLP., priority 2009, dated 2014):
Where two headings read alike, the source gives them in different places.

How the values were obtained:
[1] = test system: Mycosphaerella graminicola; anamorph: Septoria tritici; Bayer code SEPTTR; experiment: Fungicidal activity: leaf blotch of wheat, one-day protectant (1DP) and three-day curative (3DC) tests on wheat plants; format: in vivo, Septoria tritici on wheat plants (variety Yuma); details: Zymoseptoria tritici, rating of % disease control vs untreated inoculated plants
Method: Evaluation of Fungicidal Activity: Leaf Blotch of Wheat (Mycosphaerella graminicola; anamorph: Septoria tritici; Bayer code […]) Wheat plants (variety Yuma) were grown from seed in a greenhouse in 50% mineral soil/50% soil-less Metro mix until the first leaf was fully emerged, with 7-10 seedlings per pot. These plants were inoculated with an aqueous spore suspension of Septoria tritici either prior to or after fungicide treatments. After inoculation the plants were kept in 100% relative humidity (one day in a dark dew chamber followed by two to three days in a lighted dew chamber) to permit spores to germinate and infect the leaf. The plants were then transferred to a greenhouse for disease to develop. The following table presents the activity of typical compounds of the present disclosure when evaluated in these experiments. The effectiveness of the test compounds in controlling disease was determined by assessing the severity of disease on treated plants, then converting the severity to percent control based on the level of disease on untreated, inoculated plants. In each case of Table III the rating scale is as follows: […]

[2] = 24 h, one-day protectant, read-out: SEPTTR 25 ppm 1DP
[3] = 24 h, one-day protectant, read-out: SEPTTR 100 ppm 1DP
[4] = 72 h, three-day curative, read-out: SEPTTR 25 ppm 3DC
[5] = 72 h, three-day curative, read-out: SEPTTR 100 ppm 3DC

Row | SMILES | melting point | pest or weed control at 25 ppm [1, 2] | pest or weed control at 100 ppm [1, 3] | pest or weed control at 25 ppm [1, 4] | pest or weed control at 100 ppm [1, 5]
1 | CC=NOc1ncc(F)c(N(C)Cc2ccc(OC)cc2)n1 [Compound 49] |  | 0 to 25% | 0 to 25% | 0 to 25% | 26 to 50%
2 | COc1ccc(CNc2nc(ON=CC(C)C)ncc2F)cc1 [Compound 35] |  | 0 to 25% | 26 to 50% | 0 to 25% | 76 to 100%
3 | COc1ccc(C=NOc2ncc(F)c(N(C)Cc3ccc(Cl)cc3)n2)cc1 [Compound 43] |  | 0 to 25% | 0 to 25% | 26 to 50% | 26 to 50%
4 | Fc1ccccc1CNc1nc(ON=Cc2ccccc2)ncc1F [Compound 17] |  | 76 to 100% | 76 to 100% | 0 to 25% | 0 to 25%
5 | COc1ccc(C=NOc2ncc(F)c(NCc3ccc(OC)cc3)n2)cc1 [Compound 33] |  | 51 to 75% | 76 to 100% | 0 to 25% | 51 to 75%
6 | COc1ccc(CN(C)c2nc(ON=Cc3ccccc3)ncc2F)cc1 [Compound 46] |  | 0 to 25% | 0 to 25% | 26 to 50% | 76 to 100%
7 | CN(C)/C=N/c1nc(ON=Cc2ccccc2)ncc1F [Compound 1, N′-{5-fluoro-2-[1-phenylmethylideneamino-oxy]pyrimidin-4-yl}-N,N-dimethylformamidine] | 240 to 244 °C (dec.) | 76 to 100% | 76 to 100% | 76 to 100% | 76 to 100%
8 | COc1ccc(CNc2nc(ON=Cc3ccccc3)ncc2F)cc1 [Compound 31] |  | 26 to 50% | 76 to 100% | 51 to 75% | 76 to 100%
9 | O=CNc1nc(ON=Cc2ccccc2)ncc1F [Compound 4, N-{5-fluoro-2-[1-phenylmethylideneamino-oxy]pyrimidin-4-yl}formamide] |  | 76 to 100% | 76 to 100% | 76 to 100% | 76 to 100%
10 | CN(Cc1ccccc1)c1nc(ON=Cc2ccccc2)ncc1F [Compound 36] |  | 0 to 25% | 0 to 25% | 26 to 50% | 51 to 75%
11 | CC(C)C=NOc1ncc(F)c(NCc2ccccc2)n1 [Compound 25] |  | 0 to 25% | 26 to 50% | 26 to 50% | 76 to 100%
12 | COc1ccc(C=NOc2ncc(F)c(NCc3ccccc3F)n2)cc1 [Compound 19] |  | 51 to 75% | 76 to 100% | 0 to 25% | 0 to 25%
13 | CC=NOc1ncc(F)c(NCc2ccccc2)n1 [Compound 24] |  | 0 to 25% | 0 to 25% | 0 to 25% | 26 to 50%
14 | COc1ccc(CNc2nc(ON=Cc3ccc(Cl)cc3)ncc2F)cc1 [Compound 32] |  | 0 to 25% | 0 to 25% | 26 to 50% | 76 to 100%
15 | CC(C)C=NOc1ncc(F)c(NCc2ccccc2F)n1 [Compound 16, 2-methylpropionaldehyde O-[5-fluoro-4-(2-fluorobenzylamino)pyrimidin-2-yl]oxime] |  | 0 to 25% | 0 to 25% | 51 to 75% | 76 to 100%

Further lines, with some results ahead:

Row | melting point | SMILES | pest or weed control at 25 ppm [1, 2] | pest or weed control at 100 ppm [1, 3] | pest or weed control at 25 ppm [1, 4] | pest or weed control at 100 ppm [1, 5]
16 | 127 to 128 °C | Fc1cnc(ON=Cc2ccccc2)nc1NCc1ccc(Cl)cc1 [Compound 26] | 0 to 25% | 0 to 25% | 26 to 50% | 26 to 50%
17 | 230 to 242 °C (dec.) | CN(C)/C=N/c1nc(ON=Cc2ccc(Cl)cc2)ncc1F [Compound 2] | 76 to 100% | 76 to 100% | 76 to 100% | 76 to 100%
18 | 111 to 113 °C | Fc1cnc(ON=Cc2ccccc2)nc1NCc1ccccc1 [Compound 21] | 0 to 25% | 76 to 100% | 51 to 75% | 76 to 100%
19 | 78 to 81 °C | CN(Cc1ccccc1)c1nc(ON=Cc2ccc(Cl)cc2)ncc1F [Compound 37] | 0 to 25% | 51 to 75% | 26 to 50% | 76 to 100%
20 | 122 to 124 °C | CC=NOc1ncc(F)c(N(C)C)n1 [Compound 54] | 0 to 25% | 0 to 25% | 0 to 25% | 0 to 25%
21 | 180 to 194 °C | COc1ccc(C=NOc2ncc(F)c(NCc3ccccc3)n2)cc1 [Compound 23] | 0 to 25% | 76 to 100% | 26 to 50% | 26 to 50%
22 | 220 to 230 °C (dec.) | COc1ccccc1C=NOc1ncc(F)c(/N=C/N(C)C)n1 [Compound 14] | 76 to 100% | 76 to 100% | 76 to 100% | 76 to 100%
23 | 105 to 107 °C | CC(C)C=NOc1ncc(F)c(N)n1 [Compound 7] | 76 to 100% | 76 to 100% | 76 to 100% | 76 to 100%
24 | 220 to 230 °C (dec.) | Nc1nc(ON=Cc2ccccc2Cl)ncc1F [Compound 5, 2-chlorobenzaldehyde O-(4-amino-5-fluoropyrimidin-2-yl)oxime] | 76 to 100% | 76 to 100% | 76 to 100% | 76 to 100%
25 | 75 to 76 °C | CN(C)c1nc(ON=Cc2ccccc2)ncc1F [Compound 51] | 0 to 25% | 0 to 25% | 0 to 25% | 51 to 75%
26 | 79 to 82 °C | CC=NOc1ncc(F)c(NCc2ccc(OC)cc2)n1 [Compound 34] | 0 to 25% | 26 to 50% | 26 to 50% | 76 to 100%
27 | 200 to 220 °C (dec.) | Nc1nc(ON=Cc2ccc(Cl)cc2)ncc1F [Compound 8] | 76 to 100% | 76 to 100% | 76 to 100% | 76 to 100%
28 | 247 to 253 °C (dec.) | Cc1ccc(C=NOc2ncc(F)c(/N=C/N(C)C)n2)cc1 [Compound 15] | 76 to 100% | 76 to 100% | 76 to 100% | 76 to 100%
29 | 243 to 245 °C (dec.) | COc1ccc(C=NOc2ncc(F)c(/N=C/N(C)C)n2)cc1 [Compound 13, N′-{5-Fluoro-2-[1-(4-methoxyphenyl)-methylideneaminooxy]pyrimidin-4-yl}-N,N-dimethylformamidine] | 76 to 100% | 76 to 100% | 76 to 100% | 76 to 100%
30 | 98 to 103 °C | Fc1ccccc1CNc1nc(ON=Cc2ccc(Cl)cc2)ncc1F [Compound 18] | 76 to 100% | 76 to 100% | 0 to 25% | 0 to 25%
31 | 141 to 142 °C | COc1ccc(C=NOc2ncc(F)c(NCc3ccc(Cl)cc3)n2)cc1 [Compound 28] | 0 to 25% | 26 to 50% | 0 to 25% | 0 to 25%
32 | 79 to 83 °C | COc1ccc(CN(C)c2nc(ON=Cc3ccc(Cl)cc3)ncc2F)cc1 [Compound 47] | 26 to 50% | 26 to 50% | 26 to 50% | 51 to 75%
33 | 115 to 116 °C | CN(Cc1ccc(Cl)cc1)c1nc(ON=Cc2ccc(Cl)cc2)ncc1F [Compound 42] | 0 to 25% | 26 to 50% | 0 to 25% | 0 to 25%
34 | 110 to 112 °C | COc1ccc(CN(C)c2nc(ON=CC(C)C)ncc2F)cc1 [Compound 50] | 0 to 25% | 0 to 25% | 26 to 50% | 26 to 50%
35 | 201 to 220 °C (dec.) | Cc1ccc(C=NOc2ncc(F)c(N)n2)cc1 [Compound 11] | 76 to 100% | 76 to 100% | 76 to 100% | 76 to 100%
36 | 214 to 220 °C (dec.) | CC=NOc1ncc(F)c(N(C)Cc2ccc(Cl)cc2)n1 [Compound 44] |  |  |  | 
